The subject of test [1] is vaccinia virus. It counts as cell-based, vaccinia virus (Wyeth strain).
In test [2] the test system is vaccinia virus. In kind it is cell-based, vaccinia virus (Wyeth strain). This is another data set of the same source.
The test system of a further test is vaccinia virions (IMV). Also on record: species or system vaccinia virus (Wyeth strain). Conditions: for alteration of virion structure: 25 μM.
Another test deals with E. coli ML35p. The test can be described thus: Minimum bactericidal concentration / antimicrobial activity against E. coli ML35p. It counts as cell-based. The note with it: for Minimum Bactericidal Concentration: mean of three independent experiments.

“And” between values parts separate entries of the source, which are not always exact repeats. Equal entries are not always repeated. “Also recorded” adds a separate entry of the source. Where no end group is shown, it is not given here.

With `CC[C@H](C)[C@H](NC(=O)[C@H](CCCCN)NC(=O)[C@H](CCC(=O)O)NC(=O)[C@H](CCCCN)NC(=O)[C@H](CO)NC(=O)[C@H](CCCCN)NC(=O)[C@H](CCCNC(=N)N)NC(=O)[C@H](Cc1ccccc1)NC(=O)[C@H](Cc1ccccc1)NC(=O)[C@H](CC(=O)O)NC(=O)CNC(=O)[C@H](CC(C)C)NC(=O)[C@@H](N)CC(C)C)C(=O)NCC(=O)N[C@@H](CCCCN)C(=O)N[C@@H](CCC(=O)O)C(=O)N[C@@H](Cc1ccccc1)C(=O)N[C@@H](CCCCN)C(=O)N[C@@H](CCCNC(=N)N)C(=O)N[C@H](C(=O)N[C@H](C(=O)N[C@@H](CCC(N)=O)C(=O)N[C@@H](CCCNC(=N)N)C(=O)N[C@H](C(=O)N[C@@H](CCCCN)C(=O)N[C@@H](CC(=O)O)C(=O)N[C@@H](Cc1ccccc1)C(=O)N[C@@H](CC(C)C)C(=O)N[C@@H](CCCNC(=N)N)C(=O)N[C@@H](CC(N)=O)C(=O)N[C@@H](CC(C)C)C(=O)N[C@H](C(=O)N1CCC[C@H]1C(=O)N[C@@H](CCCNC(=N)N)C(=O)N[C@H](C(=O)N[C@@H](CCC(=O)O)C(=O)N[C@@H](CO)C(=O)O)[C@@H](C)O)C(C)C)[C@@H](C)CC)C(C)C)[C@@H](C)CC` [LL-37, LLGDFFRKSK EKIGKEFKR1 VQRIKDFLRN LVPRTES], in the test on vaccinia virus [1], the “contact time with vaccinia required to detect antiviral activity” value is “At least one hour”, the “effective antiviral concentration relative to that required for killing of S. aureus” value was “at least one log lower” and the “lowest concentration with significant reduction in viral replication” value was 25 µM. In the test on vaccinia virus [2], the “amount of viral mRNA in the tissue culture cells” value was “decreased in proportion to the concentration”. In the test with vaccinia virions (IMV), the “Altered virions (%)” value is 67% and 90% and 95%; the Altered virions/virion number is 19/28 and 27/30 and 39/41. Moreover, the “antimicrobial activity against E. coli ML35p” value (“antimicrobial activity” below) in the test with E. coli ML35p is recorded as “within reported parameters”.
On to “GLLRKGGEKIGEKLKKIGQKIKNFFQKLVPQPEQ (GLLRKGGEKIGEKLKKIGQKIKNFFQKLVPQPEQ) [CRAMP]”, for which, in the test on vaccinia virus [1], the “effective antiviral concentration relative to that required for killing of S. aureus” value was “at least one log lower”, the “inhibition of vaccinia virus replication (plaque-forming units)” value (shortened to “inhibition … (plaque-forming units)”) is on record as “concentration-dependent inhibition; also recorded: able to kill vaccinia virus” and the “lowest concentration with significant reduction in viral replication” value was 25 µM. In the test on vaccinia virus [2], the “amount of viral mRNA in the tissue culture cells” value is recorded as “decreased in proportion to the concentration”. Besides, the “antimicrobial activity” value in the test with E. coli ML35p is “within reported parameters”.
On to GLNGPDIYKGUYQFKSVEFD [Peptide 8044], for which the “inhibition … (plaque-forming units)” value with vaccinia virus [1] is “did not inhibit virus replication; also recorded: no antiviral activity”. In the test with vaccinia virions (IMV), the “effect on the structure of the IMV (electron microscopy)” value is recorded as “did not have an effect on virion structure”; the “alteration of virion structure” value is “*25 μM HNP-1 and control peptides did not alter virion structure”. Moreover, the “antimicrobial activity” value in the test with E. coli ML35p is “no antimicrobial activity; also recorded: did not exhibit antimicrobial activity; also recorded: ^aControl peptide 8044 did not possess antimicrobial activity against ML35p”.
For the compound “HBD-1 (DHYNCVSSGGQCLYSACPIFTKIQGTCYRGKAKCCK; ends and bridges not checked; cysteine pairing not given here; UniProt P60022 33-68, looked up)”, in the test on vaccinia virus [1], the “inhibition … (plaque-forming units)” value is recorded as “did not inhibit viral replication” and the “inhibition of vaccinia virus replication at concentrations as high as 50 μM” value was “did not inhibit vaccinia virus replication”. Moreover, the “Minimum Bactericidal Concentration” value in the test with E. coli ML35p is 16.02 µM and 16.03 ± 1.20 µM.
Regarding HNP-1, in the test on vaccinia virus [1], the “inhibition … (plaque-forming units)” value is “did not inhibit virus replication; also recorded: did not inhibit viral replication” and the “inhibition of vaccinia virus replication at concentrations as high as 50 μM” value was “did not inhibit vaccinia virus replication”. Further, in the test on vaccinia virions (IMV), the “effect on the structure of the IMV (electron microscopy)” value is “did not have an effect on virion structure”; the “alteration of virion structure” value was “*25 μM HNP-1 and control peptides did not alter virion structure”. For the same compound, the “antimicrobial activity” value in the test on E. coli ML35p is on record as “active against E. coli”. Also, the “Minimum Bactericidal Concentration” value in the test with E. coli ML35p (listed as HNP) is 8.42 µM and 8.42 ± 0.43 µM.

(Values after US7777000B2, “Anti-viral activity of cathelicidin peptides” (priority 2003, dated 2010).)
